Test results reported in article PMC5651844, “YEATS2 links histone acetylation to tumorigenesis of non-small cell lung cancer” (Nature Communications, 2017).
“And” between values parts separate entries of the source, which are not always exact repeats. Equal entries are not always repeated. “Also recorded” adds a separate entry of the source. Ends that are not written are not given here.

How the values were obtained:
[1] = target: T1, YEATS2 YEATS domain (aa 201–332), wild type (Homo sapiens, UniProt Q9ULM3); assay: Isothermal titration calorimetry (ITC), wild-type YEATS domain; format: binding; settings: for binding in ITC, in words: WT YEATS2 YEATS domain
T1 construct: encompassing residues 201–332 of human YEATS2; 10×His-SUMO (N, cleaved yes); made in house; host or cells: Escherichia coli BL21 (DE3)
T1 sequence (Q9ULM3 201-332): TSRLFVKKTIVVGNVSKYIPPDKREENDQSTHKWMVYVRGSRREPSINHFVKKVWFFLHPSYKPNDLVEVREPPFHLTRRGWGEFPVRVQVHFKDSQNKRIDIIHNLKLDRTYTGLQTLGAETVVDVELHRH
Method: The YEATS2 domain encompassing residues 201–332 of human YEATS2 was cloned into a pSUMOH10 vector (an in house modified vector based on pET28b) containing an N-terminal 10×His-SUMO tag. The recombinant YEATS2_201–332 was overexpressed in Escherichia coli BL21 (DE3). After overnight induction by 0.4 mM isopropyl β-D-thiogalactoside at 16 °C in TB medium, cells were collected and suspended in buffer: 20 mM Tris, pH 7.5, 0.5 M sodium citrate, 5% glycerol, 1 mM phenylmethylsulfonyl fluoride, and 20 mM imidazole. After cell lysis and centrifugation, the recombinant protein was purified to homogeneity over HisTrap, and the 10xHis-SUMO tag was cleaved by ULP1 overnight at 4 °C then removed by reloaded onto the HisTrap column. The free YEATS2_201–332 protein was finally polished by size-exclusion chromatography on a Superdex G75 column (GE Healthcare) in elution buffer: 20 mM Tris, pH 7.5, 0.5 M sodium citrate, 5% glycerol, and 2 mM β-mercaptoethanol. All YEATS2_201–332 mutants were purified in essentially the same procedures as the wild-type protein. All mutant proteins were expressed and purified essentially the same as WT YEATS2 YEATS. […] Cells were pelleted via centrifugation, flash-frozen in liquid nitrogen, and lysed by sonication. Cell lysate was centrifuged, and the supernatant was incubated with glutathione Sepharose 4B beads (GE Healthcare). The GST tag was cleaved with Prescission protease.
All calorimetric experiments of the wild type or mutant YEATS domain proteins were conducted at 15 °C using a MicroCal iTC200 instrument (GE Healthcare). The YEATS2_201–332 samples were dialyzed in the following buffer: 20 mM Tris 7.5, 0.5 M sodium citrate, 5% glycerol, and 2 mM β-mercaptoethanol. Protein concentration was determined by absorbance spectroscopy at 280 nm. Peptides (>95% purity) were quantified by weighing on a large scale and then aliquoted and freeze-dried for individual use. Acquired calorimetric titration curves were analyzed using Origin 7.0 (OriginLab) using the “One Set of Binding Sites” fitting model.

GST-YEATS2 YEATS domain = assay: Histone peptide pulldown, western blot; format: binding, human; settings: 1 µg biotinylated peptide, 1–2 µg GST-fused protein, 4 °C overnight, streptavidin beads
Method: An aliquot of 1 µg of biotinylated histone peptides with different modifications were incubated with 1–2 µg of GST-fused proteins in binding buffer (50 mM Tris-HCl 7.5, 250 mM NaCl, 0.1% NP-40, 1 mM phenylmethyl sulphonyl fluoride (PMSF)) at 4 °C overnight. Streptavidin beads (Amersham) were added to the mixture, and the mixture was incubated for 1 h with rotation. The beads were then washed three times and analyzed using SDS-PAGE and western blotting. For GST pulldown, 2 µg protein were incubated with 10 µg of calf thymus total histones (Worthington) in binding buffer (50 mM Tris-HCl 7.5, 1 M NaCl, 1% NP-40, 0.5 mM EDTA, 1 mM PMSF plus protease inhibitors (Roche)) at 4 °C overnight, followed by an additional 1 h Glutathione Sepharose beads (Amersham) incubation. The beads were then washed five times and analyzed using SDS-PAGE and western blotting.

[2] = tested on: 15N-labeled YEATS domain of YEATS2 (aa 201–350); assay: NMR titration, 1H,15N HSQC; format: binding, human; settings: 0.1 mM 15N-labeled YEATS domain, 1× PBS pH 6.8, 100 mM KCl, 298 K, increasing peptide (H3K27ac21–31 or H3K9ac1–12)
Method: The YEATS2 domain encompassing residues 201–332 of human YEATS2 was cloned into a pSUMOH10 vector (an in house modified vector based on pET28b) containing an N-terminal 10×His-SUMO tag. The recombinant YEATS2_201–332 was overexpressed in Escherichia coli BL21 (DE3). After overnight induction by 0.4 mM isopropyl β-D-thiogalactoside at 16 °C in TB medium, cells were collected and suspended in buffer: 20 mM Tris, pH 7.5, 0.5 M sodium citrate, 5% glycerol, 1 mM phenylmethylsulfonyl fluoride, and 20 mM imidazole. After cell lysis and centrifugation, the recombinant protein was purified to homogeneity over HisTrap, and the 10xHis-SUMO tag was cleaved by ULP1 overnight at 4 °C then removed by reloaded onto the HisTrap column. The free YEATS2_201–332 protein was finally polished by size-exclusion chromatography on a Superdex G75 column (GE Healthcare) in elution buffer: 20 mM Tris, pH 7.5, 0.5 M sodium citrate, 5% glycerol, and 2 mM β-mercaptoethanol. All YEATS2_201–332 mutants were purified in essentially the same procedures as the wild-type protein. All mutant proteins were expressed and purified essentially the same as WT YEATS2 YEATS. For NMR titrations, the YEATS domain (aa 201–350) of YEATS2 was expressed in BL21(DE3) RIL cells as a GST-fusion protein in minimal media supplemented with ^15NH4Cl (Sigma). […]

AF9 YEATS domain = settings: ref Li et al., 2014; cited from earlier work
ENL YEATS domain = settings: ref Wan et al., 2017; cited from earlier work

## H3K27ac: K27-acetylated H3 peptide: ITC text = H3 15–39K27ac; NMR = H3K27ac21–31; pulldown = biotinylated peptide; cited AF9/ENL peptides unspecified (ATKAARK(Ac)SAPA)
[1]
  binding in ITC, in words: best binding substrate
[1]; main text and Fig. 3e, ITC at 15 °C, N.D. = not detected, read-out: dissociation constant (KD)
  Kd: 50 µM
GST-YEATS2 YEATS domain
  binding in histone peptide pulldown: bound specifically
[2]
  chemical shift perturbations in 1H,15N HSQC spectra: global chemical shift perturbations
AF9 YEATS domain
  Kd: ~7 µM and 7 µM
ENL YEATS domain
  Kd: 30 µM

## TARKSTGGK(ac)A [H36-15K14ac, histone H3 peptide, residues 6-15, acetylated at K14]
[1]; listed as H3K14ac
  binding in ITC, in words: weak or no binding; also recorded: no detectable binding
